Results from US20260217701A1, “SELECTIVE BET INHIBITORS AND USES THEREOF” (Tay Therapeutics Limited, priority 2022, published 2026).
Several values for one entry are separate records, joined by “and”; a condition that tells them apart may be missing. Equal values may be shown once.

Test system: collagen-induced arthritis
Assay: Collagen-induced arthritis (CIA) model: clinical scores and paw volume; as to Animal paw volume percent change (%): reference of the scale not given here; as to Average animal paw volume percent change (%): reference of the scale not given here
Format: in vivo, Lewis rats
Conditions: for Overall Clinical Score: individual animals 1-8; for Animal paw volume percent change (%): individual animals
[1] = Day 12, CIA + Compound A 10 mg/kg
[2] = Day 13, L paw, group 5 CIA + Compound A 1 mg/kg
[3] = Day 13, L paw, group 6 CIA + Compound A 3 mg/kg
[4] = Day 13, L paw, group 7 CIA + Compound A 10 mg/kg
[5] = Day 13, R paw, group 5 CIA + Compound A 1 mg/kg
[6] = Day 13, R paw, group 6 CIA + Compound A 3 mg/kg
[7] = Day 13, R paw, group 7 CIA + Compound A 10 mg/kg
[8] = Day 13, CIA + Compound A 1 mg/kg
[9] = Day 13, CIA + Compound A 3 mg/kg
[10] = Day 13, CIA + Compound A 10 mg/kg
[11] = Day 14, L paw, group 5 CIA + Compound A 1 mg/kg
[12] = Day 14, L paw, group 6 CIA + Compound A 3 mg/kg
[13] = Day 14, L paw, group 7 CIA + Compound A 10 mg/kg
[14] = Day 14, R paw, group 5 CIA + Compound A 1 mg/kg
[15] = Day 14, R paw, group 6 CIA + Compound A 3 mg/kg
[16] = Day 14, R paw, group 7 CIA + Compound A 10 mg/kg
[17] = Day 14, CIA + Compound A 1 mg/kg
[18] = Day 14, CIA + Compound A 3 mg/kg
[19] = Day 14, CIA + Compound A 10 mg/kg
[20] = Day 15, L paw, group 5 CIA + Compound A 1 mg/kg
[21] = Day 15, L paw, group 6 CIA + Compound A 3 mg/kg
[22] = Day 15, L paw, group 7 CIA + Compound A 10 mg/kg
[23] = Day 15, R paw, group 5 CIA + Compound A 1 mg/kg
[24] = Day 15, R paw, group 6 CIA + Compound A 3 mg/kg
[25] = Day 15, R paw, group 7 CIA + Compound A 10 mg/kg
[26] = Day 15, CIA + Compound A 1 mg/kg
[27] = Day 15, CIA + Compound A 3 mg/kg

For `Cn1cc(-c2ccccc2)c(-c2cn(C)c(=O)c3[nH]c(-c4cnn(C(F)(F)F)c4)cc23)cc1=O` [Compound A, 6-methyl-4-(1-methyl-2-oxo-5-phenyl-1,2-dihydropyridin-4-yl)-2-(1-(trifluoromethyl)-1H-pyrazol-4-yl)-1,6-dihydro-7H-pyrrolo[2,3-c]pyridin-7-one], the “Average detailed clinical score, left forelimb” value [1] was 0.00, the “Average detailed clinical score, left hind limb” value [1] was 0.00 and the “Average detailed clinical score, right forelimb” value [1] was 0.00. For the same compound, the “Average detailed clinical score, right hind limb” value [1] was 0.13, the “Average detailed clinical score, score” value [1] was 0.13 and the “Average overall clinical score” value [1] was 0. For the same compound, the “Average animal paw volume” value [2] was 1.42 mL, the “Average animal paw volume percent change (%)” value [2] was 7.45% and the “Average animal paw volume” value [3] was 1.40 mL. The “Average animal paw volume percent change (%)” value [3] was 6.55%, the “Average animal paw volume” value [4] was 1.41 mL and the “Average animal paw volume percent change (%)” value [4] was 7.21%. The “Average animal paw volume” value [5] was 1.43 mL, the “Average animal paw volume percent change (%)” value [5] was 7.62% and the “Average animal paw volume” value [6] was 1.40 mL. For the same compound, the “Average animal paw volume percent change (%)” value [6] was 6.26%, the “Average animal paw volume” value [7] was 1.41 mL and the “Average animal paw volume percent change (%)” value [7] was 7.41%. The “Average detailed clinical score, left forelimb” value [8] was 0, the “Average detailed clinical score, left hind limb” value [8] was 0 and the “Average detailed clinical score, right forelimb” value [8] was 0. For the same compound, the “Average detailed clinical score, right hind limb” value [8] was 0, the “Average detailed clinical score, score” value [8] was 0 and the “Average overall clinical score” value [8] was 0. For the same compound, the “Overall Clinical Score” value (Day 13, CIA + Compound A 1 mg/kg, 1 mg/kg) was 0 (6×) and 2 and 1, the “Average detailed clinical score, left forelimb” value [9] was 0 and the “Average detailed clinical score, left hind limb” value [9] was 0. The “Average detailed clinical score, right forelimb” value [9] was 0, the “Average detailed clinical score, right hind limb” value [9] was 0 and the “Average detailed clinical score, score” value [9] was 0. For the same compound, the “Average overall clinical score” value [9] was 0, the “Overall Clinical Score” value (Day 13, CIA + Compound A 3 mg/kg, 3 mg/kg) was 0 and the “Average detailed clinical score, left forelimb” value [10] was 0. For the same compound, the “Average detailed clinical score, left hind limb” value [10] was 0.125, the “Average detailed clinical score, right forelimb” value [10] was 0.125 and the “Average detailed clinical score, right hind limb” value [10] was 0.25. The “Average detailed clinical score, score” value [10] was 0.5, the “Average overall clinical score” value [10] was 1 and the “Average animal paw volume” value [11] was 1.53 mL. For the same compound, the “Average animal paw volume percent change (%)” value [11] was 15.36%, the “Average animal paw volume” value [12] was 1.44 mL and the “Average animal paw volume percent change (%)” value [12] was 9.64%. For the same compound, the “Average animal paw volume” value [13] was 1.44 mL, the “Average animal paw volume percent change (%)” value [13] was 9.68% and the “Average animal paw volume” value [14] was 1.49 mL. For the same compound, the “Average animal paw volume percent change (%)” value [14] was 11.73%, the “Average animal paw volume” value [15] was 1.45 mL and the “Average animal paw volume percent change (%)” value [15] was 10.16%. The “Average animal paw volume” value [16] was 1.44 mL, the “Average animal paw volume percent change (%)” value [16] was 9.90% and the “Average detailed clinical score, left forelimb” value [17] was 0. For the same compound, the “Average detailed clinical score, left hind limb” value [17] was 1, the “Average detailed clinical score, right forelimb” value [17] was 0 and the “Average detailed clinical score, right hind limb” value [17] was 0. The “Average detailed clinical score, score” value [17] was 1, the “Average overall clinical score” value [17] was 1 and the “Overall Clinical Score” value (Day 14, CIA + Compound A 1 mg/kg, 1 mg/kg) was 0 (3×) and 2 (2×) and 1 (3×). The “Average detailed clinical score, left forelimb” value [18] was 0, the “Average detailed clinical score, left hind limb” value [18] was 0 and the “Average detailed clinical score, right forelimb” value [18] was 0. The “Average detailed clinical score, right hind limb” value [18] was 0, the “Average detailed clinical score, score” value [18] was 1 and the “Average overall clinical score” value [18] was 1. For the same compound, the “Overall Clinical Score” value (Day 14, CIA + Compound A 3 mg/kg, 3 mg/kg) was 0, the “Average detailed clinical score, left forelimb” value [19] was 0 and the “Average detailed clinical score, left hind limb” value [19] was 0.25. For the same compound, the “Average detailed clinical score, right forelimb” value [19] was 0, the “Average detailed clinical score, right hind limb” value [19] was 0.375 and the “Average detailed clinical score, score” value [19] was 0.625. The “Average overall clinical score” value [19] was 1, the “Average animal paw volume” value [20] was 1.64 mL and the “Average animal paw volume percent change (%)” value [20] was 24.11%. For the same compound, the “Average animal paw volume” value [21] was 1.54 mL, the “Average animal paw volume percent change (%)” value [21] was 16.70% and the “Average animal paw volume” value [22] was 1.54 mL. The “Average animal paw volume percent change (%)” value [22] was 16.95%, the “Animal paw volume percent change (%)” value (Day 15, L paw, group 5 CIA + Compound A 1 mg/kg, 1 mg/kg) was 10.73% and 42.25% and 30.26% and 23.40% and 10.86% and 24.91% and 44.53% and the “Animal paw volume percent change (%)” value (Day 15, L paw, group 6 CIA + Compound A 3 mg/kg, 3 mg/kg) was 12.93% and 23.35% and 12.17% and 8.79% and 18.01% and 25.47%. The “Average animal paw volume” value [23] was 1.58 mL, the “Average animal paw volume percent change (%)” value [23] was 19.02% and the “Average animal paw volume” value [24] was 1.51 mL. The “Average animal paw volume percent change (%)” value [24] was 14.88%, the “Average animal paw volume” value [25] was 1.50 mL and the “Average animal paw volume percent change (%)” value [25] was 14.23%. For the same compound, the “Animal paw volume percent change (%)” value (Day 15, R paw, group 5 CIA + Compound A 1 mg/kg, 1 mg/kg) was 8.43% and 39.77% and 13.09% and 24.15% and 10.33% and 30.42% and 20.00%, the “Animal paw volume percent change (%)” value (Day 15, R paw, group 6 CIA + Compound A 3 mg/kg, 3 mg/kg) was 4.53% and 9.73% and 9.81% and 5.20% and 34.75% and 17.23% and the “Average detailed clinical score, left forelimb” value [26] was 0. The “Average detailed clinical score, left hind limb” value [26] was 1, the “Average detailed clinical score, right forelimb” value [26] was 0 and the “Average detailed clinical score, right hind limb” value [26] was 1. The “Average detailed clinical score, score” value [26] was 2, the “Average overall clinical score” value [26] was 2 and the “Overall Clinical Score” value (Day 15, CIA + Compound A 1 mg/kg, 1 mg/kg) was 0 (3×) and 4 and 3 (3×) and 2. The “Average detailed clinical score, left forelimb” value [27] was 0, the “Average detailed clinical score, left hind limb” value [27] was 1 and the “Average detailed clinical score, right forelimb” value [27] was 0. For the same compound, the “Average detailed clinical score, right hind limb” value [27] was 1.
